In series [1] the target is Human Serum Albumin (HSA) (Homo sapiens, UniProt P02768). As to the kind of experiment: Fluorescence increase on addition to 4% HSA solution (HSA complex formation). It is filed as binding. How it is done:
ICG is a hydrophobic molecule that forms a tight complex with Human Serum Albumin (HSA). The fluorescence of ICG increased ˜10 fold, as expected, when it was added to a 4% HSA solution. When ICG is conjugated to a protein, it loses its ability to form tight HAS complexes, as confirmed in our experiments where the fluorescence of ICG-IgG (no dPEG) increased by only a factor of ˜2 when added to 4% HSA. We hypothesized that ICG might still be able to bind to HSA when it was bound to IgG through a dPEG12 linker.

Series [2] in a line: Solubility of ICG-NHS (no dPEG). In kind it is physicochemical. The following applies: 10% DMAC (our work). An excerpt: Soluble in 10% DMSO (lit) or DMAC (our work)
The nature of series [3]: Behaviour of unreacted reagent on spin columns in PBS (aggregation). The following applies: no MAG control. It is filed as physicochemical. An excerpt: Reacted with MAG but couldn't separate unreacted reagent on spin columns in PBS
For series [4] the following is noted: 10% DMSO (lit); cited from earlier work.
Series [5] is described as follows: Conjugation of ICG reagents with IgG: maximal ICG incorporation without losing the protein. The note with it: reaction with MAG in 10% DMAC. In kind it is physicochemical. An excerpt: The maximal number of ICGs using this reagent that can be incorporated into an IgG without losing the protein is 4-5 ICG/IgG (FIG. 18). A similar number of ICGs from ICG-NHS, the reagent without dPEG, can be substituted into IgG (FIG. 19).
c. Conjugation of ICG-dPEG12-NHS with MAG (Mouse Anti-Goat IgG Antibody)
MAG reacted with different concentrations of ICG-dPEG12-NHS in 10% DMAC
Product purified over two G50 spin columns in PBS
[IgG] and ICG/IgG molar ratios determined from A (770 nm) and A (280) nm
Lose most of protein when [ICG-dPEG12-NHS] in the reaction is ≧0.2 mM
Highest incorporation: ICG/IgG˜5

Values joined by “and” are separate entries in the source; they are usually repeats but may differ in a detail not shown here. Identical values can stand only once. Like-named read-outs stand apart in the source and are kept apart here.

Human Serum Albumin (HSA), sequence (P02768 25-609): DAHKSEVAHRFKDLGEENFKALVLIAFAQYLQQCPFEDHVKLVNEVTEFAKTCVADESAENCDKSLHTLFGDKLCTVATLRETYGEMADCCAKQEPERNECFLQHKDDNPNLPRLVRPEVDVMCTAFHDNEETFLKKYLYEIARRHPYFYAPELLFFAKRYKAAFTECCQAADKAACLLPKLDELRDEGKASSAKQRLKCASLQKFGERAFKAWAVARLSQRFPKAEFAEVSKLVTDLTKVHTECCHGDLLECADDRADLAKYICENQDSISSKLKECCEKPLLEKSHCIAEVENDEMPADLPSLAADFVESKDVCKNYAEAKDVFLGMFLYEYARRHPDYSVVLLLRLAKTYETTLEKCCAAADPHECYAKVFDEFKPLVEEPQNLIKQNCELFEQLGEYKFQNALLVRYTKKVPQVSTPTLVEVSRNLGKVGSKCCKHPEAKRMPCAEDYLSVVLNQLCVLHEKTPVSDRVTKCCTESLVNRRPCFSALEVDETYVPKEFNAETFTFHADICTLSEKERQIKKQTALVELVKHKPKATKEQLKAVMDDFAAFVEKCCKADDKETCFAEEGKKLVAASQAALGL

For the compound `CC1(C)C(/C=C/C=C/C=C/C=C2\N(CCCCS(=O)(=O)[O-])c3ccc4ccccc4c3C2(C)C)=[N+](CCCCS(=O)(=O)[O-])c2ccc3ccccc3c21.[Na+]` [ICG], the “increase of fluorescence when added to 4% HSA” value in series [1] is about 10 fold. `CC1(C)C(/C=C/C=C/C=C/C=C2\N(CCCCS(=O)(=O)[O-])c3ccc4ccccc4c3C2(C)C)=[N+](CCCCCC(=O)ON2C(=O)CCC2=O)c2ccc3ccccc3c21` [ICG-NHS]: the solubility result in series [2] and in series [4] was “Soluble” throughout. In addition, in series [3], the “aggregation of unreacted reagent” value is “apparently forms aggregates”. Regarding “dPEG12-NHS ester)-1,1-dimethyl-benzoindoliden-hepta-1,3,5-trienyl-(1,1-dimethyl-benzoindolium butane sulfonate) [ICG-dPEG12-NHS]”, the “maximal number of ICGs that can be incorporated into an IgG without losing the protein / highest incorporation” value in series [5] was 4-5 ICG/IgG and ~5 ICG/IgG.
